Measured values as given in PMC3165090 (Journal of medicinal chemistry, 2011).
Counter-ions that a name gives are not always drawn.

How the values were obtained:
human recombinant Top1 = target: T1, human recombinant Top1 (Homo sapiens, UniProt P11387); test: Top1-mediated DNA cleavage assay; format: biochemical; conditions: for Top1 cleavage: semiquantitative, relative Top1 inhibitory potency vs compounds 1 and 2, 117-bp DNA fragment; for concentration dependence of DNA cleavage band intensity: 0.1-100 μM, side-by-side comparison (Figure 4)
T1 sequence (P11387 1-765): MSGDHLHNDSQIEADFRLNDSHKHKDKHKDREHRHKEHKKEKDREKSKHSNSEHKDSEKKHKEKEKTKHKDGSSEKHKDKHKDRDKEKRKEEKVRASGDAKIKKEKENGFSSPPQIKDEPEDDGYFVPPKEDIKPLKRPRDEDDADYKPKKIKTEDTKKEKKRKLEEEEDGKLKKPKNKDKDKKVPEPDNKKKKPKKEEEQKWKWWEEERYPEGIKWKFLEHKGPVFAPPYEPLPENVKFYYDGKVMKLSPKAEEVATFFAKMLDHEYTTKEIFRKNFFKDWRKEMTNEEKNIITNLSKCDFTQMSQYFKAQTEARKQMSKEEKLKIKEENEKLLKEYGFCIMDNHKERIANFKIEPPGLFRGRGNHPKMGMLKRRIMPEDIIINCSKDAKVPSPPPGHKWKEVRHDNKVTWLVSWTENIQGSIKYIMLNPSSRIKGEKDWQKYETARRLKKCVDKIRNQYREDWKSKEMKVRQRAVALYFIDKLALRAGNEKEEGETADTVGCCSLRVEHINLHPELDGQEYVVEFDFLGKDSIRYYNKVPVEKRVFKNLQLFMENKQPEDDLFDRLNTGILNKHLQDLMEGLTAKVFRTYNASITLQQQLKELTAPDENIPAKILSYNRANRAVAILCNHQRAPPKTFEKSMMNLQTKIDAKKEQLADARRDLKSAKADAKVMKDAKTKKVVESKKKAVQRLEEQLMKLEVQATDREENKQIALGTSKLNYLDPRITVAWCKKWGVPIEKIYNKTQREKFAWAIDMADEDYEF

[1] = test system: all human cancer cell lines successfully tested; test: NCI screen, mean graph midpoint; format: cell-based; conditions: 48 h, read-out: cytotoxicity (GI50) MGM
SV40 DNA = test: DNA unwinding assay; format: biochemical; conditions: for ability to unwind/intercalate into free DNA: range of tested concentrations 1-100 μM
colon HCT-116 = test: NCI screen cytotoxicity, colon HCT-116; format: cell-based; conditions: Homo sapiens, HCT-116, 48 h, read-out: cytotoxicity (GI50) colon HCT-116
melanoma UACC-62 = test: NCI screen cytotoxicity, melanoma UACC-62; format: cell-based; conditions: Homo sapiens, UACC-62, 48 h, read-out: cytotoxicity (GI50) melanoma UACC-62
renal SN12C = test: NCI screen cytotoxicity, renal SN12C; format: cell-based; conditions: Homo sapiens, 48 h, read-out: cytotoxicity (GI50) renal SN12C
lung HOP-62 = test: NCI screen cytotoxicity, lung HOP-62; format: cell-based; conditions: Homo sapiens, HOP-62, 48 h, read-out: cytotoxicity (GI50) lung HOP-62
prostate DU-145 = test: NCI screen cytotoxicity, prostate DU-145; format: cell-based; conditions: Homo sapiens, DU-145, 48 h, read-out: cytotoxicity (GI50) prostate DU-145

Top1 cleavage (human recombinant Top1) | SMILES | GI50 [1] [nM] | also measured
+++ | COc1cc2c3c(n(CCCN(C)C)c(=O)c2cc1OC)-c1ncccc1C3=O [Compound 19, 7-Aza-5,6-dihydro-6-(3-dimethylaminopropyl)-2,3-dimethoxy-5,11-dioxo-11H-indeno[1,2-c]isoquinoline Hydrochloride] | 4500 | inhibition of Top1-mediated DNA relaxation (SV40 DNA; at highest tested concentration, 100 μM): completely inhibits the Top1-mediated DNA relaxation
+++ | CN(C)CCCn1c2c(c3ccccc3c1=O)C(=O)c1cccnc1-2 [Compound 18, 7-Aza-5,6-dihydro-6-(3-dimethylaminopropyl)-5,11-dioxo-11H-indeno[1,2-c]isoquinoline Hydrochloride] | 1780 | 
 | O=C1c2cccnc2-c2[nH]c(=O)c3cc([N+](=O)[O-])ccc3c21 [Compound 17, 7-Aza-5,6-dihydro-3-nitro-5,11-dioxo-11H-indeno[1,2-c]isoquinoline] |  | ability to unwind/intercalate into free DNA (SV40 DNA): allow intercalation into DNA in the absence of Top1
+++ | CN(C)CCCn1c2c(c3ccc([N+](=O)[O-])cc3c1=O)C(=O)c1ccccc1-2 [Compound 35] | 9770 | GI50 (colon HCT-116): 6460 nM; GI50 (melanoma UACC-62): 7080 nM; GI50 (renal SN12C): 4170 nM
+++ | CN(C)CCCn1c2c(c3ccccc3c1=O)C(=O)c1ccccc1-2 [Compound 33, reference compound] |  | 
++ | COc1cc2c3c(n(CCCn4ccnc4)c(=O)c2cc1OC)-c1ncccc1C3=O [Compound 29, 7-Aza-5,6-dihydro-6-(3-(1H-imidazol-1-yl)propyl)-2,3-dimethoxy-5,11-dioxo-11H-indeno[1,2-c]isoquinoline] |  | concentration dependence of DNA cleavage band intensity (human recombinant Top1): concentration-dependent increase of intensity of DNA cleavage bands
++ | O=C1c2cccnc2-c2c1c1ccccc1c(=O)n2CCCn1ccnc1 [Compound 28, 7-Aza-5,6-dihydro-6-(3-(1H-imidazol-1-yl)propyl)-5,11-dioxo-11H-indeno[1,2-c]isoquinoline] |  | 
++ | COc1cc2c3c(n(CCCN4CCOCC4)c(=O)c2cc1OC)-c1ncccc1C3=O [Compound 22, 7-Aza-5,6-dihydro-6-(3-morpholinopropyl)-2,3-dimethoxy-5,11-dioxo-11H-indeno[1,2-c]isoquinoline Hydrochloride] |  | concentration dependence of DNA cleavage band intensity (human recombinant Top1): concentration-dependent increase of intensity of DNA cleavage bands; ability to unwind/intercalate into free DNA (SV40 DNA): inability to unwind/intercalate into DNA
 | COc1cc2c3c(n(CCCNCCO)c(=O)c2cc1OC)-c1ncccc1C3=O [Compound 31, 7-Aza-5,6-dihydro-6-(3-(2-hydroxyethylamino)propyl)-2,3-dimethoxy-5,11-dioxo-11H-indeno[1,2-c]isoquinoline Hydrochloride] | 290 | concentration dependence of DNA cleavage band intensity (human recombinant Top1): behave similarly to 19
 | CN(C)CCCn1c2c(c3ccc([N+](=O)[O-])cc3c1=O)C(=O)c1cccnc1-2 [Compound 20, 7-Aza-5,6-dihydro-6-(3-dimethylaminopropyl)-3-nitro-5,11-dioxo-11H-indeno[1,2-c]isoquinoline Hydrochloride] | 1860 | 
+++ | O=C1c2cccnc2-c2c1c1ccc([N+](=O)[O-])cc1c(=O)n2CCCN1CCOCC1 [Compound 23, 7-Aza-5,6-dihydro-6-(3-morpholinopropyl)-3-nitro-5,11-dioxo-11H-indeno[1,2-c]isoquinoline Hydrochloride] |  | 
 | COc1cc2c3c(n(CCCN)c(=O)c2cc1OC)-c1ncccc1C3=O [Compound 32, 7-Aza-5,6-dihydro-6-(3-aminopropyl)-2,3-dimethoxy-5,11-dioxo-11H-indeno[1,2-c]isoquinoline Hydrochloride] | 2090 | concentration dependence of DNA cleavage band intensity (human recombinant Top1): behave similarly to 19
+ | O=C1c2cccnc2-c2c1c1ccccc1c(=O)n2CCCNCCO [Compound 30, 7-Aza-5,6-dihydro-6-(3-(2-hydroxyethylamino)propyl)-5,11-dioxo-11H-indeno[1,2-c]isoquinoline Hydrochloride] | 1290 | 
 | CC[C@@]1(O)C(=O)OCc2c1cc1n(c2=O)Cc2cc3ccccc3nc2-1 [Compound 1, camptothecin] |  | GI50 (lung HOP-62): 10 nM; GI50 (colon HCT-116): 30 nM; GI50 (melanoma UACC-62): 10 nM; GI50 (renal SN12C): 20 nM; GI50 (prostate DU-145): 10 nM
 | O=C1c2cccnc2-c2c1c1ccccc1c(=O)n2CCCN1CCOCC1 [Compound 21, 7-Aza-5,6-dihydro-6-(3-morpholinopropyl)-5,11-dioxo-11H-indeno[1,2-c]isoquinoline Hydrochloride] | 15500 | 
